Patent US20240139104A1, “MICELLE RELEASING THERMOSENSITIVE HYDROGELS AS A THERAPEUTIC DELIVERY SYSTEM” (GEORGIA TECH RESEARCH CORPORATION, priority 2021, published 2024)

Columns and labels:
immune cells in blood = experiment: Immune cell profiles in blood (flow cytometry) after GSNO and aCTLA-4; assay type: in vivo, mice; conditions: CD4+T, CD8+T, NKT populations
Experimental: Immune cells in blood were collected and profiled to delineate the systemic immunity in the combinational use of GSNO and aCTLA-4 (FIG. 29). In brief, ACK lysis buffer was treated to the blood taken on day 9 to harvest immune cells in blood by removing red blood cells. All cells were stored on ice<2 h prior to use. Cells for flow cytometry were prepared by six steps with PBS, FACS buffer, or permeabilization buffer (eBioscience™ Foxp3/Transcription Factor Staining Buffer Set, Invitrogen™) wash; 2.4G2 staining on ice for 5 min, Zombie Aqua fixable viability dye staining at room temperature for 30 min, […]-MHCI-PE tetramer (NIH Tetramer Core Facility, Atlanta, Georgia) staining on ice for 15 min, antibody mixtures staining on ice for 30 min, fixing and permeabilizing with Foxp3 Fixation/Permeabilization working solution (eBioscience™ Foxp3/Transcription Factor Staining Buffer Set, Invitrogen™) on ice for 60 min, and FoxP3 staining on ice for 75 min. LSR Fortessa flow cytometry and flowJo were employed to analyze and profiles the stained cells.

B16F10-OVA tumor = experiment: GSNO (i.t.) and aCTLA-4 (i.p.) therapy without hydrogel, dual tumor model; assay type: in vivo, mice; conditions: GSNO 480 μg kg^−1 i.t. day 7; aCTLA-4 100 μg mouse^−1 i.p. day 8, 11, 14; compared to saline
Experimental: In brief, 10^5 B16F10-OVA (30 μL) was inoculated in left dorsal skin on day 0 and in right dorsal skin on day 4 to establish dual tumor model. 30 μL of saline or GSNO (480 μg kg ^−1) was administered to the left tumor on day 7 and 30 μL of aCTLA-4 (100 μg mouse^−1) was administered intraperitoneally on day 8, 11, 14.

[1] = system: B16F10-OVA tumor and TdLNs; conditions: 15 μL of 0.016 mg mL^−1 IR780 intratumoral, IVIS 24 h after injection
[2] = Absorption/fluorescence and photostability of IR780 exposed to daylight; assay type: physicochemical; conditions: 10% ethanol

In the case of `N[C@@H](CCC(=O)N[C@@H](CSN=O)C(=O)NCC(=O)O)C(=O)O` [GSNO, S-nitrosoglutathione], the “systemic activation and expansion of T cell, NK and NKT in blood” value (immune cells in blood) is reported as “failed to induce systemic activation and expansion of T cell, NK and NKT response” and the “therapeutic effects (1º and 2º tumor growth)” value (B16F10-OVA tumor) is reported as “did not lead to any therapeutic effects”.

With `CCCN1C(=CC=C2CCCC(C=CC3=[N+](CCC)c4ccccc4C3(C)C)=C2Cl)C(C)(C)c2ccccc21.[I-]` [IR780, IR780 iodide] the “IR780 signal in injected tumor tissues and TdLNs” value [1] was “cleared quickly from the injected tumor tissues and exhibited negligible signals in the TdLNs” and the “time to complete photobleaching” value [2] was no more than 24 h.
